Assay results as given in US20220281848A1, “PYRAZOLE-SUBSTITUTED PYRROLIDINONES AS HERBICIDES” (FMC Corporation, priority 2019, published 2022).

System: plants
Assay: Test D pre-emergence, other plants of Tables D1 and D3
Format: in vivo
Conditions: for damage to plant (100=total damage to plant; 0=no damage to plant), ABUTH / damage to plant (100=total damage to plant; 0=no damage to plant), BIDPI / damage to plant (100=total damage to plant; 0=no damage to plant), BRAPL / damage to plant (100=total damage to plant; 0=no damage to plant), CYPES / damage to plant (100=total damage to plant; 0=no damage to plant), DIGSA / damage to plant (100=total damage to plant; 0=no damage to plant), ECHCG / damage to plant (100=total damage to plant; 0=no damage to plant), ELEIN / damage to plant (100=total damage to plant; 0=no damage to plant), EPHHL / damage to plant (100=total damage to plant; 0=no damage to plant), GLXMA / damage to plant (100=total damage to plant; 0=no damage to plant), IPOHE / damage to plant (100=total damage to plant; 0=no damage to plant), ORYSA / damage to plant (100=total damage to plant; 0=no damage to plant), PANMI / damage to plant (100=total damage to plant; 0=no damage to plant), SETFA / damage to plant (100=total damage to plant; 0=no damage to plant), SIDSP / damage to plant (100=total damage to plant; 0=no damage to plant), SORVU: preemergent, 20 DAA; for damage to plant, ALOMY / damage to plant, AVEFA / damage to plant, BEAVA / damage to plant, BROTE / damage to plant, BRSNN / damage to plant, CHEAL / damage to plant, GALAP / damage to plant, HORVW / damage to plant, KCHSC / damage to plant, LOLPE / damage to plant, POAAN / damage to plant, POLCO / damage to plant, SINAR / damage to plant, STEME / damage to plant, VERPE: pre-emergence, 100=total damage, 0=no damage
In short: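 Damage was rated visually from 0 (none) to 100 (total), at 20 DAA for pre-emergence and 15 d for post-emergence. Plants grew from safener-treated seed in a glasshouse at 24/18° C. or 20/16° C. day/night, 65% humidity, watered twice daily.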

## CCn1nc([C@H]2CN(C)C(=O)[C@@H]2C(=O)Nc2cccc(F)c2F)c2ccc(F)cc21 [Compound 4]
Rate 15
  damage to plant (100=total damage to plant; 0=no damage to plant), ABUTH: 0
  damage to plant (100=total damage to plant; 0=no damage to plant), BIDPI: 0
  damage to plant (100=total damage to plant; 0=no damage to plant), BRAPL: 40
  damage to plant (100=total damage to plant; 0=no damage to plant), CYPES: 0
  damage to plant (100=total damage to plant; 0=no damage to plant), DIGSA: 0
  damage to plant (100=total damage to plant; 0=no damage to plant), ECHCG: 0
  damage to plant (100=total damage to plant; 0=no damage to plant), ELEIN: 0
  damage to plant (100=total damage to plant; 0=no damage to plant), EPHHL: 0
  damage to plant (100=total damage to plant; 0=no damage to plant), GLXMA: 0
  damage to plant (100=total damage to plant; 0=no damage to plant), IPOHE: 0
  damage to plant (100=total damage to plant; 0=no damage to plant), ORYSA: 0
  damage to plant (100=total damage to plant; 0=no damage to plant), PANMI: 0
  damage to plant (100=total damage to plant; 0=no damage to plant), SETFA: 10
  damage to plant (100=total damage to plant; 0=no damage to plant), SIDSP: 0
  damage to plant (100=total damage to plant; 0=no damage to plant), SORVU: 0
Rate 30
  damage to plant (100=total damage to plant; 0=no damage to plant), ABUTH: 0
  damage to plant (100=total damage to plant; 0=no damage to plant), BIDPI: 0
  damage to plant (100=total damage to plant; 0=no damage to plant), BRAPL: 40
  damage to plant (100=total damage to plant; 0=no damage to plant), CYPES: 0
  damage to plant (100=total damage to plant; 0=no damage to plant), DIGSA: 60
  damage to plant (100=total damage to plant; 0=no damage to plant), ECHCG: 40
  damage to plant (100=total damage to plant; 0=no damage to plant), ELEIN: 0
  damage to plant (100=total damage to plant; 0=no damage to plant), EPHHL: 0
  damage to plant (100=total damage to plant; 0=no damage to plant), GLXMA: 0
  damage to plant (100=total damage to plant; 0=no damage to plant), IPOHE: 0
  damage to plant (100=total damage to plant; 0=no damage to plant), ORYSA: 0
  damage to plant (100=total damage to plant; 0=no damage to plant), PANMI: 0
  damage to plant (100=total damage to plant; 0=no damage to plant), SETFA: 70
  damage to plant (100=total damage to plant; 0=no damage to plant), SIDSP: 0
  damage to plant (100=total damage to plant; 0=no damage to plant), SORVU: 0
Rate 60
  damage to plant (100=total damage to plant; 0=no damage to plant), ABUTH: 0
  damage to plant (100=total damage to plant; 0=no damage to plant), BIDPI: 0
  damage to plant (100=total damage to plant; 0=no damage to plant), BRAPL: 60
  damage to plant (100=total damage to plant; 0=no damage to plant), CYPES: 0
  damage to plant (100=total damage to plant; 0=no damage to plant), DIGSA: 80
  damage to plant (100=total damage to plant; 0=no damage to plant), ECHCG: 80
  damage to plant (100=total damage to plant; 0=no damage to plant), EPHHL: 0
  damage to plant (100=total damage to plant; 0=no damage to plant), GLXMA: 0
  damage to plant (100=total damage to plant; 0=no damage to plant), IPOHE: 0
  damage to plant (100=total damage to plant; 0=no damage to plant), ORYSA: 0
  damage to plant (100=total damage to plant; 0=no damage to plant), PANMI: 0
  damage to plant (100=total damage to plant; 0=no damage to plant), SETFA: 70
  damage to plant (100=total damage to plant; 0=no damage to plant), SIDSP: 0
  damage to plant (100=total damage to plant; 0=no damage to plant), SORVU: 10
Rate 130
  damage to plant (100=total damage to plant; 0=no damage to plant), ABUTH: 0
  damage to plant (100=total damage to plant; 0=no damage to plant), BIDPI: 0
  damage to plant (100=total damage to plant; 0=no damage to plant), BRAPL: 80
  damage to plant (100=total damage to plant; 0=no damage to plant), CYPES: 0
  damage to plant (100=total damage to plant; 0=no damage to plant), DIGSA: 90
  damage to plant (100=total damage to plant; 0=no damage to plant), ECHCG: 90
  damage to plant (100=total damage to plant; 0=no damage to plant), EPHHL: 0
  damage to plant (100=total damage to plant; 0=no damage to plant), GLXMA: 0
  damage to plant (100=total damage to plant; 0=no damage to plant), IPOHE: 0
  damage to plant (100=total damage to plant; 0=no damage to plant), ORYSA: 0
  damage to plant (100=total damage to plant; 0=no damage to plant), PANMI: 0
  damage to plant (100=total damage to plant; 0=no damage to plant), SETFA: 80
  damage to plant (100=total damage to plant; 0=no damage to plant), SORVU: 10
Rate 250
  damage to plant (100=total damage to plant; 0=no damage to plant), ABUTH: 0
  damage to plant (100=total damage to plant; 0=no damage to plant), BIDPI: 0
  damage to plant (100=total damage to plant; 0=no damage to plant), BRAPL: 90
  damage to plant (100=total damage to plant; 0=no damage to plant), CYPES: 0
  damage to plant (100=total damage to plant; 0=no damage to plant), DIGSA: 90
  damage to plant (100=total damage to plant; 0=no damage to plant), ECHCG: 90
  damage to plant (100=total damage to plant; 0=no damage to plant), ELEIN: 10
  damage to plant (100=total damage to plant; 0=no damage to plant), EPHHL: 0
  damage to plant (100=total damage to plant; 0=no damage to plant), GLXMA: 0
  damage to plant (100=total damage to plant; 0=no damage to plant), IPOHE: 0
  damage to plant (100=total damage to plant; 0=no damage to plant), ORYSA: 0
  damage to plant (100=total damage to plant; 0=no damage to plant), PANMI: 20
  damage to plant (100=total damage to plant; 0=no damage to plant), SETFA: 90
  damage to plant (100=total damage to plant; 0=no damage to plant), SORVU: 40
Rate 500
  damage to plant (100=total damage to plant; 0=no damage to plant), ABUTH: 0
  damage to plant (100=total damage to plant; 0=no damage to plant), BIDPI: 0
  damage to plant (100=total damage to plant; 0=no damage to plant), BRAPL: 90
  damage to plant (100=total damage to plant; 0=no damage to plant), CYPES: 0
  damage to plant (100=total damage to plant; 0=no damage to plant), DIGSA: 90
  damage to plant (100=total damage to plant; 0=no damage to plant), ECHCG: 90
  damage to plant (100=total damage to plant; 0=no damage to plant), ELEIN: 10
  damage to plant (100=total damage to plant; 0=no damage to plant), EPHHL: 10
  damage to plant (100=total damage to plant; 0=no damage to plant), GLXMA: 0
  damage to plant (100=total damage to plant; 0=no damage to plant), IPOHE: 10
  damage to plant (100=total damage to plant; 0=no damage to plant), ORYSA: 0
  damage to plant (100=total damage to plant; 0=no damage to plant), PANMI: 40
  damage to plant (100=total damage to plant; 0=no damage to plant), SETFA: 90
  damage to plant (100=total damage to plant; 0=no damage to plant), SIDSP: 0
  damage to plant (100=total damage to plant; 0=no damage to plant), SORVU: 50
Rate 15, 20 DAA
  damage to plant, ALOMY: 0
  damage to plant, AVEFA: 0
  damage to plant, BEAVA: 0
  damage to plant, BROTE: 0
  damage to plant, BRSNN: 0
  damage to plant, CHEAL: 0
  damage to plant, GALAP: 0
  damage to plant, HORVW: 0
  damage to plant, KCHSC: 0
  damage to plant, LOLPE: 0
  damage to plant, POAAN: 0
  damage to plant, POLCO: 0
  damage to plant, SINAR: 0
  damage to plant, STEME: 0
  damage to plant, VERPE: 0
Rate 30, 20 DAA
  damage to plant, ALOMY: 0
  damage to plant, AVEFA: 0
  damage to plant, BEAVA: 0
  damage to plant, BROTE: 0
  damage to plant, BRSNN: 0
  damage to plant, CHEAL: 0
  damage to plant, GALAP: 0
  damage to plant, HORVW: 0
  damage to plant, KCHSC: 0
  damage to plant, LOLPE: 0
  damage to plant, POAAN: 0
  damage to plant, POLCO: 0
  damage to plant, SINAR: 0
  damage to plant, STEME: 0
  damage to plant, VERPE: 0
Rate 60, 20 DAA
  damage to plant, ALOMY: 0
  damage to plant, AVEFA: 0
  damage to plant, BEAVA: 0
  damage to plant, BROTE: 0
  damage to plant, BRSNN: 0
  damage to plant, CHEAL: 0
  damage to plant, GALAP: 0
  damage to plant, HORVW: 0
  damage to plant, KCHSC: 0
  damage to plant, LOLPE: 0
  damage to plant, POAAN: 40
  damage to plant, POLCO: 0
  damage to plant, SINAR: 0
  damage to plant, STEME: 0
  damage to plant, VERPE: 0
Rate 130, 20 DAA
  damage to plant, ALOMY: 0
  damage to plant, AVEFA: 0
  damage to plant, BEAVA: 0
  damage to plant, BROTE: 0
  damage to plant, BRSNN: 0
  damage to plant, CHEAL: 0
  damage to plant, GALAP: 0
  damage to plant, HORVW: 0
  damage to plant, KCHSC: 0
  damage to plant, LOLPE: 0
  damage to plant, POAAN: 50
  damage to plant, POLCO: 0
  damage to plant, SINAR: 0
  damage to plant, STEME: 0
  damage to plant, VERPE: 0
Rate 250, 20 DAA
  damage to plant, ALOMY: 0
  damage to plant, AVEFA: 0
  damage to plant, BEAVA: 0
  damage to plant, BROTE: 0
  damage to plant, BRSNN: 0
  damage to plant, CHEAL: 0
  damage to plant, GALAP: 0
  damage to plant, HORVW: 0
  damage to plant, KCHSC: 0
  damage to plant, LOLPE: 0
  damage to plant, POAAN: 80
  damage to plant, POLCO: 0
  damage to plant, SINAR: 0
  damage to plant, STEME: 0
  damage to plant, VERPE: 0
Rate 500, 20 DAA
  damage to plant, ALOMY: 40
  damage to plant, AVEFA: 10
  damage to plant, BEAVA: 0
  damage to plant, BROTE: 10
  damage to plant, BRSNN: 10
  damage to plant, CHEAL: 0
  damage to plant, GALAP: 0
  damage to plant, HORVW: 20
  damage to plant, KCHSC: 0
  damage to plant, LOLPE: 0
  damage to plant, POAAN: 90
  damage to plant, POLCO: 20
  damage to plant, SINAR: 30
  damage to plant, STEME: 0
  damage to plant, VERPE: 0
